The source of these data is ChEMBL document CHEMBL1130699, “Coprophilin: an anticoccidial agent produced by a dung inhabiting fungus” (1998).

The test system of test [1] is MDBK441. Description: Compound was tested for inhibition of the growth of Eimeria tenella in MDBK 441 cell line up to concentration 25 uM; no inhibition. Type of test: functional, cell-based. The settings on record: Bos taurus.
For test [2], the system named is MDBK441. Description: Compound was tested for inhibition of the growth of Eimeria tenella in MDBK 441 cell line. The settings on record: Bos taurus. Type of test: functional.

Values after ≈ are worked out from the molar mass of the structure shown. Active and inactive are the calls of the source. No cut-off for these calls is given here.

On to `COC(=O)CCCC[C@@H]1[C@H]2[C@H](C)[C@@H](O)C(C)C[C@]2(C)CC[C@@H]1C` (stereo partly drawn), for which the MIC result in the test with MDBK441 [1] was “inactive”.
Regarding `CC1C[C@]2(C)C=C[C@H](C)[C@H](/C=C/C=C/C(=O)O)[C@H]2[C@H](C)[C@H]1O` (stereo partly drawn), the MIC entry in the test with MDBK441 [1] was “inactive”.
In the test with MDBK441 [2], `COC(=O)/C=C/C=C/[C@@H]1[C@H]2[C@H](C)[C@@H](O)C(C)C[C@]2(C)C=C[C@@H]1C` (stereo partly drawn) showed an MIC of 1.5 µM (≈ 0.478 µg/mL).
